# In patent US20240000741A1, “ALL-TRANS RETINOIC ACID ENHANCES RADIOTHERAPY AND OVERCOMES IMMUNE SUPPRESSION FOR CANCER THERAPY” (The University of Chicago, priority 2022, published 2024):
# Legend:
# [1] = test system: MC38 tumor in Rag1−/− mice; conditions: ATRA 400 ug/each oral gavage daily plus X-ray 2 Gy/fraction, three consecutive days
# Procedure: To further study whether T cell responses are important for the antitumor efficacy of ATRA (+) treatment, 2×10^6 MC38 cells were inoculated into the right flanks of Rag1^−/− […] mice, which are deficient of T and B cells. When the tumors reached 100-120 mm^3 in volume, Rag1^−/− mice were administered 400 ug/each ATRA daily via oral gavage followed by 2 Gy/fraction X-ray on three consecutive days. The tumor size was measured with a caliper every day and the tumor volume calculated as 0.5×length×width 2. All of the mice were sacrificed when the control group tumors reached about 2000 mm^3.
# LLC cells = assay: Tumor re-challenge of cured mice with LLC cells; format: in vivo, mouse; conditions: mice cured by IR+RA vs naive mice, 1×10^6 LLC cells
# Procedure: (§1) 1×10^6 MC38, B16/F1, Renca or CT26 cells were subcutaneously implanted into flanks of mice. Tumors were irradiated using a Phillips IR250 orthovoltage X-ray generator (Phillips, Amsterdam, the Netherlands) operating at 250 kV 15 mA. Subcutaneous local tumors were irradiated by shielding bodies with a cylindrical lead cover with only flank tumors exposed for radiation. ATRA (400 μg/mice/day) was administered by oral gavage for 10 days. For the two-tumor model, 1×10^6 and 0.7×10^6 MC38 cells were subcutaneously implanted into the right and left flank of mice respectively. For the tumor re-challenge assay, both the cured mice and the naive mice were re-challenged with 5×10^6 MC38 or 1×10^6 LLC cells respectively. Tumors were measured along two diameters (length and width) and depth twice weekly and volumes were calculated as length×width×depth/2. For CD8 and CD4 T cell depletion experiments, 200 μg antibodies were injected i.p. on day 0, 2, 5 and 8 after radiation. Anti-CD11b antibody was injected i.p. every two days starting 1 day before radiation. Anti-PD-L1 antibody was administered i.p. on day 0, 3, and 7 after radiation at 200 μg/mouse. Anti-IFN-γ was administered i.p. at 500 μg/mouse every 7 days. Anti-NK1.1 antibody was administered via i.p. at 25 μg/mouse every 3 days for 3 doses. Anti-GM-CSF antibody was given by i.p. injection at 250 μg/mouse every 2 days. […]
# MC38 cells = assay: Direct cytotoxic/radiosensitizing effect of RA on cultured tumor cells; format: cell-based, mouse; conditions: RA 0 nM to 2000 nM after IR 0 Gy to 15 Gy, three days
# Procedure: To determine whether RA has direct cytotoxic and/or radiosensitizing effects on tumor cells, MC38 cells were cultured with RA (0 nM to 2000 nM) after IR (0 Gy to 15 Gy) for three days. […] Since both IR and RA regulate immune responses, studies were conducted to examine how the combination treatment changes the tumor immune environment. Using a multiplex assay, the level of chemokines and cytokines in tumors three days after treatment was determined. Following IR+RA treatment, increased levels of CCL2, CCL3, CCL4 and CCL5 (by 2-fold to 3-fold compared to levels in any single treatment), which are involved in monocyte recruitment, were observed. GM-CSF, a critical cytokine for DC generation, increased by more than 5-fold in whole tumor homogenates.
# [2] = test system: MC38 colon carcinoma tumors; assay: MC38 tumor growth after local ablative IR and/or RA; format: in vivo, mouse
# [3] = test system: Renca (a renal cancer tumor model); assay: Renca tumor growth after IR and RA; format: in vivo, mouse; conditions: IR and RA combination compared with single treatments
# Procedure: (§2) 1×10^6 MC38, B16/F1, Renca or CT26 cells were subcutaneously implanted into flanks of mice. Tumors were irradiated using a Phillips IR250 orthovoltage X-ray generator (Phillips, Amsterdam, the Netherlands) operating at 250 kV 15 mA. Subcutaneous local tumors were irradiated by shielding bodies with a cylindrical lead cover with only flank tumors exposed for radiation. ATRA (400 μg/mice/day) was administered by oral gavage for 10 days. For the two-tumor model, 1×10^6 and 0.7×10^6 MC38 cells were subcutaneously implanted into the right and left flank of mice respectively. […] Tumors were measured along two diameters (length and width) and depth twice weekly and volumes were calculated as length×width×depth/2. For CD8 and CD4 T cell depletion experiments, 200 μg antibodies were injected i.p. on day 0, 2, 5 and 8 after radiation. Anti-CD11b antibody was injected i.p. every two days starting 1 day before radiation. Anti-PD-L1 antibody was administered i.p. on day 0, 3, and 7 after radiation at 200 μg/mouse. Anti-IFN-γ was administered i.p. at 500 μg/mouse every 7 days. Anti-NK1.1 antibody was administered via i.p. at 25 μg/mouse every 3 days for 3 doses. Anti-GM-CSF antibody was given by i.p. injection at 250 μg/mouse every 2 days. FTY720 was delivered via gavage at 20 μg per dose every day for 7 days. […]
# [4] = test system: CT26 (a colon cancer model); assay: CT26 tumor growth after IR and RA (ablative IR); format: in vivo, mouse; conditions: IR and RA combination compared with single treatments
# Procedure: as §2
# [5] = test system: bone marrow-derived DCs (BMDCs); assay: iNOS induction in bone marrow-derived dendritic cells in vitro; format: cell-based, mouse; conditions: cultured in the presence of RA (200 μM)
# Procedure: Femurs and tibias from 8- to 10-week-old mice were harvested. BMDCs were derived as described (40). The cultured BMDC were collected on day 6 for further experiments. For Inf-MAC induction in vitro, bone marrow cells were cocultured with the presence of 200 μM RA. On day 6, indicated amount of IFN-γ was added directly to the culture. Cells were stained for iNOS and TNF-α after 24-36 hours and analyzed using flow cytometry.
# [6] = test system: non-irradiated MC38 tumors; assay: MC38 two-tumor model, growth of non-irradiated tumors (abscopal effect); format: in vivo, mouse; conditions: RA and IR treatment of primary tumor compared to any single treatment
# Procedure: as §1
# B16 melanoma tumor model = assay: B16 melanoma tumor growth after IR and RA; format: in vivo, mouse; conditions: IR and RA combination compared with single treatments
# Procedure: as §2
smiles,measurement,setting,value
"CC1=C(/C=C/C(C)=C/C=C/C(C)=C/C(=O)O)C(C)(C)CCC1 [RA, all-trans retinoic acid]",therapeutic effect on MC38 tumors in Rag1−/− mice,[1],did not show any therapeutic effect
same,growth of LLC after re-challenge,LLC cells,grew at the same rate
same,tumor cell death in vitro,MC38 cells,no direct effects
same,MC38 tumor growth,"[2]; IR (15 Gy) plus RA 400 μg/dose oral gavage, compared to untreated controls or any single treatment",synergistically inhibited tumor growth
same,complete tumor regression,[2]; IR (15 Gy) plus RA combination treatment,17 of 19
same,tumor inhibition,[2]; IR with RA administered by i.p. injection,Significant tumor inhibition effects
same,tumor inhibition,[2]; IR with RA at a lower dose (200 μg/dose) by oral gavage,Significant tumor inhibition effects
same,tumor inhibition,[2]; IR with slow RA-releasing pellets implanted subcutaneously,Significant tumor inhibition effects
same,MC38 tumor growth,"[2]; IR+RA, tumors grown in Rag1−/− mice, in contrast to wild type mice",did not respond
same,survival,[2]; RA alone,≤ 50 days
same,MC38 tumor growth,"[2]; RA alone, 400 μg/dose oral gavage",no significant effect
same,MC38 tumor growth,[2]; higher dose of RA alone (800 μg/mouse/dose) for 7 days,inhibited
same,Renca tumor growth,[3],significant benefit
same,CT26 tumor growth,[4],significant benefit
same,iNOS production in BMDCs,[5],increased significantly
same,growth of non-irradiated tumors,[6],slower growth rate
same,B16 tumor growth,B16 melanoma tumor model,significant benefit
